# Source: patent US20240101576A1, “HETEROCYCLIC INHIBITORS OF EGFR AND/OR HER2, FOR USE IN THE TREATMENT OF CANCER” (Scorpion Therapeutics, Inc., priority 2020, published 2024)
# What was measured:
# Format in all cases: cell-based
# EGFR WT (Ba/F3 cells) = target: T1, EGFR WT (Ba/F3 cells) (Homo sapiens, UniProt P00533); assay: Inhibitor activity on EGFR-dependent cell growth (CellTiter-Glo, 72 h), Ba/F3 EGFR WT; conditions: read-out: BaF3 WT IC50
# T1 construct: expressed in transfected cells; host or cells: Ba/F3 (murine pro-B cells), retroviral transduction, puromycin selection, maintained with EGF
# T1 sequence (P00533 25-1210): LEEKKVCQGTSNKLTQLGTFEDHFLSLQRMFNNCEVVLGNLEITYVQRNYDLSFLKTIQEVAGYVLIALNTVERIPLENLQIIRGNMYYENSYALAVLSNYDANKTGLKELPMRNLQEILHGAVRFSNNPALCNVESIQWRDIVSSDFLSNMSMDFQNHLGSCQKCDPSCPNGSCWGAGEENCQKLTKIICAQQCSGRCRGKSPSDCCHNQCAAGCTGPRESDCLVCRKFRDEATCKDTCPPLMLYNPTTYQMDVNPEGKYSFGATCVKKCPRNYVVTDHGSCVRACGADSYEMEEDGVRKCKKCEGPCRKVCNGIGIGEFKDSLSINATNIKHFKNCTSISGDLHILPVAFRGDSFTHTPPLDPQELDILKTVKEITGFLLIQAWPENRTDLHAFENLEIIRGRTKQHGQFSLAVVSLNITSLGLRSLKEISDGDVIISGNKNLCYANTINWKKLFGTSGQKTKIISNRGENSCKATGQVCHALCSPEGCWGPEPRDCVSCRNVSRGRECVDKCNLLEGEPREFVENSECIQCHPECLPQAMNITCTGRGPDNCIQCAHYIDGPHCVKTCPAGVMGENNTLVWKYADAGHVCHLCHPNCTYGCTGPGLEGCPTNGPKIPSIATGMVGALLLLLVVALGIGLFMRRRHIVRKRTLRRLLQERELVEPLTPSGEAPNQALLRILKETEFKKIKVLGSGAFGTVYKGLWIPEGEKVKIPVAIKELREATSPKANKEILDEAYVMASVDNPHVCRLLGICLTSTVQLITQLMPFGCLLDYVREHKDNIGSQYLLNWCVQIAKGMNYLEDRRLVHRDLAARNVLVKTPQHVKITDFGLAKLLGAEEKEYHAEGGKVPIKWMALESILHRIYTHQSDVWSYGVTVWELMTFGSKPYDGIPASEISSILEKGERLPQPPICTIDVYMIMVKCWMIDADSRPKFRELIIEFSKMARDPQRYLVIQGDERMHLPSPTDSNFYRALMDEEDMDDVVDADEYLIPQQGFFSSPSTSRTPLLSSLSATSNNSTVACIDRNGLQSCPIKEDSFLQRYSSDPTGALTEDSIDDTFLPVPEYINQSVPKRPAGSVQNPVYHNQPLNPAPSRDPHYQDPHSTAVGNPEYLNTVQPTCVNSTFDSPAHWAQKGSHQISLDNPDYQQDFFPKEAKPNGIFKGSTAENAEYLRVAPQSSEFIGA
# From the text: (§1) Example A. Inhibitor Activity on EGFR-Dependent Cell Growth
# (§2) Cell lines are generated by transducing Ba/F3 cells with retroviruses containing vectors with EGFR WT, EGFR L858R, EGFR exon 19del, EGFR L858R/C797S, EGFR exon 20 NPG Ins D770_N771, EGFR exon 20 ASV Ins V769_D770, EGFR exon 20 SVD Ins D770_N771, or EGFR exon 20 FQEA Ins A763_V764 genes and a puromycin selection marker. Transduced cells are selected with puromycin for 7 days and are then be transferred into culture media without Interleukin 3 (IL3). EGFR WT cells are maintained with supplemental EGF. Surviving cells are confirmed to express EGFR by Western blot and maintained as a pool. The IC50 date were included in Table 6 and Table 7.
# (§3) 1.1 Cells are harvested from flask into cell culture medium and the cell number counted.
# (§4) 1.2 Cells are diluted with culture medium to the desired density and 40 μL of cell suspension is added into each well of 384-well cell culture plate and the seeding density is 800 (FQEA, exon 19del), 600 (WT, NPG, L858R/C797S), or 400 (ASV, SVD, L858R) cells/well.
# (§5) 2 Compound Preparation and Treatment
# (§6) 2.1 Test compounds are dissolved to 10 mM in a DMSO stock solution. 45 μL of stock solution is transferred to a 384 polypropylene plate (pp-plate). Perform 3-fold, 10-point dilution via transferring 15 μL compound into 30 μL DMSO using a TECAN (EVO200) liquid handler.
# (§7) 2.2 Spin plates at room temperature at 1,000 RPM for 1 minute.
# (§8) 2.3 Transfer 120 nL of diluted compound from compound source plate into the cell plate.
# (§9) 2.4 After compound treatment for 72 hours, perform CTG detection for compound treatment plates as described in “Detection” section.
# (§10) 3.1 Plates are removed from incubators and equilibrated at room temperature for 15 minutes.
# (§11) 3.2 Thaw the CellTiter Glo reagents and allow to equilibrate to room temperature before the experiment.
# (§12) 3.3 Add 40 μL of CellTiter-Glo reagent into each well (at 1:1 to culture medium). Then place the plates at room temperature for 30 min followed by reading on EnVision.
# (§13) 4.1 Inhibition activity is calculated following the formula below:
# (§14) % Inhibition=100×(LumHC−LumSample)/(LumHC−LumLC) • where HC is obtained from cells treated with 0.1% DMSO only; and LC is obtained from culture medium only.
# (§15) 4.2 2. Calculate the IC50 by fitting the Curve using Xlfit (v5.3.1.3), equation 201.
# (§16) Y=Bottom+(Top−Bottom)/(1+10^((Log IC50−X)*HillSlope))
# [1] = target: T2, EGFR exon 20 ASV Ins V769_D770 (Ba/F3 cells) (Homo sapiens, UniProt P00533, INS769ASV); assay: Inhibitor activity on EGFR-dependent cell growth (CellTiter-Glo, 72 h), Ba/F3 EGFR exon 20 ASV Ins; conditions: read-out: BaF3 ASV IC50
# T2 construct: expressed in transfected cells; host or cells: Ba/F3 (murine pro-B cells), retroviral transduction, puromycin selection, IL3-independent pool
# T2 sequence (P00533 with tags, fused parts or gaps INS769ASV): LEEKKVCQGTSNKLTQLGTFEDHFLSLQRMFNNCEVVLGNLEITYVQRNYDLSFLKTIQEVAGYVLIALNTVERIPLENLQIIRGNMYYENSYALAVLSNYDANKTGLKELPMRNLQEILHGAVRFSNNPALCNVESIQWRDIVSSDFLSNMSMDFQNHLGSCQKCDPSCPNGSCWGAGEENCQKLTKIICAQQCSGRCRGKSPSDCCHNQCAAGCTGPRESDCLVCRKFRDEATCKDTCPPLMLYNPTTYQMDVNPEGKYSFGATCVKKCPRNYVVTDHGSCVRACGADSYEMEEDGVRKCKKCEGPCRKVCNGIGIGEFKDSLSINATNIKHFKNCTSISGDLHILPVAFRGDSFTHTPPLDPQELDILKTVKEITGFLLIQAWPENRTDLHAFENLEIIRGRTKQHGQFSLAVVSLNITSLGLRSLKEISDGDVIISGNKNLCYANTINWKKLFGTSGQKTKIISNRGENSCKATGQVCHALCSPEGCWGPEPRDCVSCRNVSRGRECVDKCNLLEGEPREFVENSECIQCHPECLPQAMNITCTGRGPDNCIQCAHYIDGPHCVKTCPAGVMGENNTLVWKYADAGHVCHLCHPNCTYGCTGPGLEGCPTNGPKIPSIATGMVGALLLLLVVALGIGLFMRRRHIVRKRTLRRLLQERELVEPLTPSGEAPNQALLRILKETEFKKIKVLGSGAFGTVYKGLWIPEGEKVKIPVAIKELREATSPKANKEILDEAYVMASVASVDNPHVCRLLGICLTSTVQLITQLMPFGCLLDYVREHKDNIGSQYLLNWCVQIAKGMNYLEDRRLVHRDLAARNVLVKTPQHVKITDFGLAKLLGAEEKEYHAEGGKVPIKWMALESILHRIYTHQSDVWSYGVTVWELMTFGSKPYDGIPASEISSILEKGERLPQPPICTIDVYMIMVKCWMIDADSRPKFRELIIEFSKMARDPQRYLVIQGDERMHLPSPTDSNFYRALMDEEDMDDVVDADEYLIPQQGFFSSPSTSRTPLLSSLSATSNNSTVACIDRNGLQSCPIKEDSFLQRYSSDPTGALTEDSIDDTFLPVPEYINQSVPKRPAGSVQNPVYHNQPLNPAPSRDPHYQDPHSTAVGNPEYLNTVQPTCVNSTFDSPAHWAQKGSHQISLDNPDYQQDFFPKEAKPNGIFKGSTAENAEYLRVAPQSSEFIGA
# From the text: as §1, §2, §3, §4, §5, §6, §7, §8, §9, §10, §11, §12, §13, §14, §15, §16
# [2] = target: T3, EGFR exon 20 SVD Ins D770_N771 (Ba/F3 cells) (Homo sapiens, UniProt P00533, INS770SVD); assay: Inhibitor activity on EGFR-dependent cell growth (CellTiter-Glo, 72 h), Ba/F3 EGFR exon 20 SVD Ins; conditions: read-out: BaF3 SVD IC50
# T3 construct: expressed in transfected cells; host or cells: Ba/F3 (murine pro-B cells), retroviral transduction, puromycin selection, IL3-independent pool
# T3 sequence (P00533 with tags, fused parts or gaps INS770SVD): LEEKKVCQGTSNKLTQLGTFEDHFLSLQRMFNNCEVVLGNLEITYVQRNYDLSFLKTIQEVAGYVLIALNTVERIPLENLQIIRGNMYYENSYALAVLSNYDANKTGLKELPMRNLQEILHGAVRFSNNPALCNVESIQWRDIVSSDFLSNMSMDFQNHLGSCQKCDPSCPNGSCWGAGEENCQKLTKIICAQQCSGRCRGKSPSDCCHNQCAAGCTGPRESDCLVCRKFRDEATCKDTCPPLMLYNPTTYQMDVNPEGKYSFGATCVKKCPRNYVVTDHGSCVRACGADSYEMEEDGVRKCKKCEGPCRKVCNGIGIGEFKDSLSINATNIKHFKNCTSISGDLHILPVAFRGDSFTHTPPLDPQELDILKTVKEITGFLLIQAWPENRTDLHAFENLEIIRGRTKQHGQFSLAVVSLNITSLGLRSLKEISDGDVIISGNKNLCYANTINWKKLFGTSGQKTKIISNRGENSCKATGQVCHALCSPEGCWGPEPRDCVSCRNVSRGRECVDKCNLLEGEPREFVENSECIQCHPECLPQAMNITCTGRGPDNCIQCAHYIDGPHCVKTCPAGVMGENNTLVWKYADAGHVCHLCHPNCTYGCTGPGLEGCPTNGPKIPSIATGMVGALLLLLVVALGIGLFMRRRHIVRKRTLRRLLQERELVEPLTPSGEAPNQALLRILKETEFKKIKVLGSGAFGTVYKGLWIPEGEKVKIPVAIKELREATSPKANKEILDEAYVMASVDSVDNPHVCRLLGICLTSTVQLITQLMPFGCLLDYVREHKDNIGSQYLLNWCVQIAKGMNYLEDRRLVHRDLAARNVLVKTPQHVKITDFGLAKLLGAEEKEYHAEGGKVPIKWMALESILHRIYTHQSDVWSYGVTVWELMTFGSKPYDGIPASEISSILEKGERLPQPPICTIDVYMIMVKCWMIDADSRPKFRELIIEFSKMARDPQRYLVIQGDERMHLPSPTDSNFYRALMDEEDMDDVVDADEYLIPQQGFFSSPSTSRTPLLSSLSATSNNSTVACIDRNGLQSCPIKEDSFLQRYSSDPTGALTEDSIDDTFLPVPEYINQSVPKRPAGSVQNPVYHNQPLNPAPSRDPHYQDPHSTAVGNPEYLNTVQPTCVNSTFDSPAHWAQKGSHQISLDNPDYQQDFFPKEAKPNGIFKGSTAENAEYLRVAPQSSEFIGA
# From the text: as §1, §2, §3, §4, §5, §6, §7, §8, §9, §10, §11, §12, §13, §14, §15, §16
# [3] = target: T4, EGFR exon 20 FQEA Ins A763_V764 (Ba/F3 cells) (Homo sapiens, UniProt P00533, INS763FQEA); assay: Inhibitor activity on EGFR-dependent cell growth (CellTiter-Glo, 72 h), Ba/F3 EGFR exon 20 FQEA Ins; conditions: read-out: BaF3 FQEA IC50
# T4 construct: expressed in transfected cells; host or cells: Ba/F3 (murine pro-B cells), retroviral transduction, puromycin selection, IL3-independent pool
# T4 sequence (P00533 with tags, fused parts or gaps INS763FQEA): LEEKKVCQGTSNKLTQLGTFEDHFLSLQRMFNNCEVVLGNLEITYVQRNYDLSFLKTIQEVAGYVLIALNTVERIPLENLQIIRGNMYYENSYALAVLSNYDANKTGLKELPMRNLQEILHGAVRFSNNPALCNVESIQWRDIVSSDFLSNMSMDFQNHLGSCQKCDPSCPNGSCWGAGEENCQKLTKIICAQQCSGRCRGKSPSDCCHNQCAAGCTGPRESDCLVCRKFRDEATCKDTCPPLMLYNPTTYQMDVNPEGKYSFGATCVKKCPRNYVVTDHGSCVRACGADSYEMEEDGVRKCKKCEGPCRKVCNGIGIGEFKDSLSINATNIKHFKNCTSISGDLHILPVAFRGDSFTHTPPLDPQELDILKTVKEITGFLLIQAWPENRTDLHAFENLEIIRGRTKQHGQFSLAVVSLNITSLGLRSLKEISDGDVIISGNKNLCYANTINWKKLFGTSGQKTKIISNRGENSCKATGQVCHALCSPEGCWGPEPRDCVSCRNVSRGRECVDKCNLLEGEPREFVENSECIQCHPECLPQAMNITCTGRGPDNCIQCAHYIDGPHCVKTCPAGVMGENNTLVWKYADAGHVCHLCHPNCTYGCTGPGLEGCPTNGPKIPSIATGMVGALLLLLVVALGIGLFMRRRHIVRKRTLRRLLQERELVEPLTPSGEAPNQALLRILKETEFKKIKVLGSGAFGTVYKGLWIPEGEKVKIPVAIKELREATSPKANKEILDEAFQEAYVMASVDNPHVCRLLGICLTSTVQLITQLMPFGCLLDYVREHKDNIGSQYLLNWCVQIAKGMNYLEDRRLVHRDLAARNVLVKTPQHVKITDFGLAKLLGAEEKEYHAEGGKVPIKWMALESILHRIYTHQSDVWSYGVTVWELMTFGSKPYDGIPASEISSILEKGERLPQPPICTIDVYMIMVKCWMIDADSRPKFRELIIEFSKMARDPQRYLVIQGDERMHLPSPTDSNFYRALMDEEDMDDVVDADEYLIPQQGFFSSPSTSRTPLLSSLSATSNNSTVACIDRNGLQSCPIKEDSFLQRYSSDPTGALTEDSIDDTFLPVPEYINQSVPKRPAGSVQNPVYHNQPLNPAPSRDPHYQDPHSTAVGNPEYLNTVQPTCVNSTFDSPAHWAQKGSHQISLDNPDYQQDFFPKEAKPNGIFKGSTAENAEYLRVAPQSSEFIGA
# From the text: as §1, §2, §3, §4, §5, §6, §7, §8, §9, §10, §11, §12, §13, §14, §15, §16
SMILES,IC50 (EGFR WT (Ba/F3 cells)),IC50 [1],IC50 [2],IC50 [3]
COc1c(Cl)cccc1Nc1c(-c2ccnc3cc(F)cnc23)[nH]c2c1C(=O)NCC2 [Compound 826],100 to 1000 nM,< 100 nM,< 100 nM,< 100 nM
"COc1c(Cl)cccc1Nc1c(-c2ccnc(N)n2)[nH]c2c1C(=O)NC(CO)C2 (stereo not drawn) [Compound 751, 2-(2-aminopyrimidin-4-yl)-3-[(3-chloro-2-methoxyphenyl)amino]-6-(hydroxymethyl)-1H,5H,6H,7H-pyrrolo[3,2-c]pyridin-4-one]",> 1000 nM,100 to 1000 nM,100 to 1000 nM,100 to 1000 nM
"COC[C@H]1CNC(=O)c2c1[nH]c(-c1ccnc3ccc(OC)nc13)c2Nc1cccc(Cl)c1OC [Compound 764, (7S)-3-[(3-chloro-2-methoxyphenyl)amino]-2-(6-methoxy-1,5-naphthyridin-4-yl)-7-(methoxymethyl)-1H,5H,6H,7H-pyrrolo[3,2-c]pyridin-4-one]",< 100 nM,< 100 nM,< 100 nM,< 100 nM
"COc1c(Cl)cccc1Nc1c(-c2ccnc3ccc(OC4(C)CC4)nc23)[nH]c2c1C(=O)NC[C@H]2C (single isomer, unassigned) [Compound 774]",< 100 nM,< 100 nM,< 100 nM,< 100 nM
"COc1ncc2nccc(-c3[nH]c4c(c3Nc3cccc(Cl)c3Cl)C(=O)NCC4)c2n1 [Compound 803, 3-[(2,3-dichlorophenyl)amino]-2-[2-methoxypyrido[3,2-d]pyrimidin-8-yl]-1H,5H,6H,7H-pyrrolo[3,2-c]pyridin-4-one]",100 to 1000 nM,< 100 nM,< 100 nM,< 100 nM
"COc1ncc2nccc(-c3[nH]c4c(c3Nc3cccc(C)c3F)C(=O)NCC4)c2n1 [Compound 804, 3-[(2-fluoro-3-methylphenyl)amino]-2-[2-methoxypyrido[3,2-d]pyrimidin-8-yl]-1H,5H,6H,7H-pyrrolo[3,2-c]pyridin-4-one]",100 to 1000 nM,100 to 1000 nM,< 100 nM,< 100 nM
"COc1ccc2nccc(-c3[nH]c4c(c3Nc3cccc(Cl)c3OC)C(=O)NC[C@H]4CCF)c2n1 [Compound 745, (R)-3-((3-chloro-2-methoxyphenyl)amino)-7-(2-fluoroethyl)-2-(6-methoxy-1,5-naphthyridin-4-yl)-1,5,6,7-tetrahydro-4H-pyrrolo[3,2-c]pyridin-4-one]",< 100 nM,< 100 nM,< 100 nM,< 100 nM
COCC[C@H]1CNC(=O)c2c1[nH]c(-c1ccncn1)c2Nc1cccc(F)c1OC [Compound 447b],> 1000 nM,100 to 1000 nM,100 to 1000 nM,100 to 1000 nM
"COc1cc2nccc(-c3[nH]c4c(c3Nc3cccc(F)c3OC)C(=O)NCC4)c2nc1OC [Compound 807, 2-(6,7-dimethoxy-1,5-naphthyridin-4-yl)-3-[(3-fluoro-2-methoxyphenyl)amino]-1H,5H,6H,7H-pyrrolo[3,2-c]pyridin-4-one]",< 100 nM,< 100 nM,< 100 nM,< 100 nM
COc1c(F)cccc1Nc1c(-c2ccnc(SC)n2)[nH]c2c1C(=O)NCC2 [compound 255],100 to 1000 nM,100 to 1000 nM,100 to 1000 nM,100 to 1000 nM
"COC(=O)N1CCC2(CC1)CNC(=O)c1c2[nH]c(-c2ccncc2F)c1Nc1cccc(Cl)c1OC [Compound 479, methyl 3′-[(3-chloro-2-methoxyphenyl)amino]-2′-(3-fluoropyridin-4-yl)-4′-oxo-5′,6′-dihydro-1′H-spiro[piperidine-4,7′-pyrrolo[3,2-c]pyridine]-1-carboxylate]",> 1000 nM,100 to 1000 nM,100 to 1000 nM,100 to 1000 nM
"COc1ccc2nccc(-c3[nH]c4c(c3Nc3cccc(Cl)c3OC)C(=O)NC[C@@H]4CCF)c2n1 [Compound 744, (S)-3-((3-chloro-2-methoxyphenyl)amino)-7-(2-fluoroethyl)-2-(6-methoxy-1,5-naphthyridin-4-yl)-1,5,6,7-tetrahydro-4H-pyrrolo[3,2-c]pyridin-4-one]",< 100 nM,< 100 nM,< 100 nM,< 100 nM
"COc1c(Cl)cccc1Nc1c(-c2ccnc3ccc(OCC4CC4)nc23)[nH]c2c1C(=O)NCC2 [compound 755, 3-[(3-chloro-2-methoxyphenyl)amino]-2-[6-(cyclopropylmethoxy)-1,5-naphthyridin-4-yl]-1H,5H,6H,7H-pyrrolo[3,2-c]pyridin-4-one]",100 to 1000 nM,< 100 nM,< 100 nM,< 100 nM
"COc1c(Cl)cccc1Nc1c(-c2ccnc(C(F)(F)F)n2)[nH]c2c1C(=O)NCC2 [compound 476, 3-[(3-chloro-2-methoxyphenyl)amino]-2-[2-(trifluoromethyl)pyrimidin-4-yl]-1H,5H,6H,7H-pyrrolo[3,2-c]pyridin-4-one]",> 1000 nM,> 1000 nM,> 1000 nM,> 1000 nM
"COc1c(Cl)cccc1Nc1c(-c2ccnc3cnc(OCCN4CCOCC4)nc23)[nH]c2c1C(=O)NCC2 [compound 506, 3-[(3-chloro-2-methoxyphenyl)amino]-2-{2-[2-(morpholin-4-yl)ethoxy]pyrido[3,2-d]pyrimidin-8-yl}-1H,5H,6H,7H-pyrrolo[3,2-c]pyridin-4-one]",> 1000 nM,100 to 1000 nM,100 to 1000 nM,100 to 1000 nM
"COc1c(Cl)cccc1Nc1c(-c2ccncc2F)[nH]c2c1C(=O)NC[C@@H]2CCN(C)C [compound 475, (7S)-3-[(3-chloro-2-methoxyphenyl)amino]-7-[2-(dimethylamino)ethyl]-2-(3-fluoropyridin-4-yl)-1H,5H,6H,7H-pyrrolo[3,2-c]pyridin-4-one]",> 1000 nM,> 1000 nM,> 1000 nM,> 1000 nM
"COc1ncc2nccc(-c3[nH]c4c(c3Nc3cccc(Cl)c3OC)C(=O)N[C@@H](C(F)(F)F)C4)c2n1 [Compound 507, (6R)-3-[(3-chloro-2-methoxyphenyl)amino]-2-{2-methoxypyrido[3,2-d]pyrimidin-8-yl}-6-(trifluoromethyl)-1H,5H,6H,7H-pyrrolo[3,2-c]pyridin-4-one]",100 to 1000 nM,< 100 nM,< 100 nM,< 100 nM
COc1c(Cl)cccc1Nc1c(-c2ccncc2F)[nH]c2c1C(=O)NC[C@@]21CCN(C(C)=O)C1 [compound 492],> 1000 nM,> 1000 nM,> 1000 nM,> 1000 nM
"COc1c(Cl)cccc1Nc1c(-c2ccncc2F)[nH]c2c1C(=O)NC[C@H]2CCN1CCOCC1 [compound 484, (7R)-3-[(3-chloro-2-methoxyphenyl)amino]-2-(3-fluoropyridin-4-yl)-7-[2-(morpholin-4-yl)ethyl]-1H,5H,6H,7H-pyrrolo[3,2-c]pyridin-4-one]",> 1000 nM,> 1000 nM,> 1000 nM,> 1000 nM
"COc1c(Cl)cccc1Nc1c(-c2ccnc(NC[C@@H]3COCCO3)n2)[nH]c2c1C(=O)NCC2 [compound 724, 3-[(3-chloro-2-methoxyphenyl)amino]-2-[2-[(1,4-dioxan-2-ylmethyl)amino]pyrimidin-4-yl]-1H,5H,6H,7H-pyrrolo[3,2-c]pyridin-4-one]",> 1000 nM,100 to 1000 nM,100 to 1000 nM,> 1000 nM
"COc1c(Cl)cccc1Nc1c(-c2ccncc2F)[nH]c2c1C(=O)NC[C@@]21CCOC1 (single isomer, unassigned) [Compound 781]",> 1000 nM,100 to 1000 nM,100 to 1000 nM,100 to 1000 nM
